In patent US9051310B2, “Nicotinamide derivative or salt thereof” (FUJIFILM Corporation, priority 2011, dated 2015):

Columns and labels:
[1] = biological target: T1, glutathione S-transferase (GST)-linked full-length human Syk protein (Homo sapiens, UniProt P43405); assay: Syk enzyme assay; format: biochemical; settings: 0.83 nM Syk, time-resolved fluorescence; read-out: IC50 of Syk-inhibitory activity
T1 construct: glutathione S-transferase (GST)-linked full-length human Syk protein; purchased Carna Biosciences; host or cells: Baculovirus expression system
How it was run: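 Phosphotyrosine on a biotin-peptide substrate (0.5 μM) was read by time-resolved fluorescence at 615 and 665 nm with Eu-anti-pTyr antibody and APC-streptavidin after 1 h EDTA stop.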

[2] = test system: mouse thrombocytopenia induced by anti-mouse CD41 antibody; assay: Mouse thrombocytopenia model; format: in vivo; settings: Platelet, female BALB/c mice, 50 mg/kg 1 hour before anti-CD41 antibody, blood sampling 4 hours after antibody, read-out: improvement of platelet count compared with the control group
Method: Test compounds were tested to examine effects upon mouse thrombocytopenia. Each test compound (50 mg/kg) was administered to 5- to 7-week-old female BALB/c mice (Charles River Laboratories Japan, Inc.). One hour thereafter, an anti-mouse CD41 ([…]) antibody (SCB) (1 μg (200 μl)) was intravenously administered to each mouse so as to induce thrombocytopenia. Four hours after administration of the anti-CD41 antibody, blood sampling from the postcava was performed. The platelet count was determined using an automated hematology analyzer.

[3] = test system: THP-1 cells (phagocytosis of opsonized Escherichia coli); assay: Antibody-dependent phagocytosis assay; format: cell-based; settings: Homo sapiens; IFNγ differentiated THP-1 cells, opsonized pHrodo Escherichia coli, 3 hours; read-out: IC50 upon phagocytosis inhibition
How it was run: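 THP-1 cells were differentiated to macrophage-like cells with 10 ng/ml IFNγ for 2 days, then treated with test compound for 30 min at room temperature. pHrodo-labeled E. coli opsonized with anti-E. coli antibody were added for 3 h at 37° C. Phagocytosis by viable (Calcein AM-positive) cells was quantified by imaging.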

[4] = test system: THP-1 cells (TNFα secretion on human IgG-coated plate); assay: TNFα generation assay; format: cell-based; settings: IFN-γ differentiated THP-1 cells, 7 hours, AlphaLISA, read-out: IC50 of TNFα generation inhibitory activity
How it was run: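 THP-1 cells were differentiated with 10 ng/ml IFN-γ for 2 days, then preincubated with compound for 30 min at room temperature. They were then plated at 5×10^4 cells/well on plates coated with human IgG (10 μg/ml). TNFα secreted over 7 h of culture was quantified by AlphaLISA.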

| Compound | IC50 [1] [nM] | change in vivo at 50 mg/kg [2] [%] | IC50 [3] [nM] | IC50 [4] [nM] |
| --- | --- | --- | --- | --- |
| C[C@H](N)[C@@H](CC1CC1)Nc1nc(Nc2ccc3c(c2)c(N(C)C)nn3C)c(C(N)=O)cc1F [Example 2-2, 6-(((2R,3S)-3-amino-1-cyclopropylbutan-2-yl)amino)-2-((3-(dimethylamino)-1-methyl-1H-indazol-5-yl)amino)-5-fluoronicotinamide] | < 10 | ≥ 50 | < 1000 |  |
| C[C@H](N)[C@H](Nc1nc(Nc2ccc3c(c2)c(N(C)C)nn3C)c(C(N)=O)cc1F)C1CCC1 [Example 2-89, 6-(((1R,2S)-2-amino-1-cyclobutylpropyl)amino)-2-((3-(dimethylamino)-1-methyl-1H-indazol-5-yl)amino)-5-fluoronicotinamide] | < 10 | ≥ 50 | 1000 to 3000 |  |
| C[C@H](N)[C@H](Nc1nc(Nc2cc(F)c3c(c2)c(N(C)C)nn3C)c(C(N)=O)cc1F)C1CCC1 [Example 2-192, 6-(((1R,2S)-2-amino-1-cyclobutylpropyl)amino)-2-((3-(dimethylamino)-7-fluoro-1-methyl-1H-indazol-5-yl)amino)-5-fluoronicotinamide] | < 10 | ≥ 50 | 1000 to 3000 |  |
| CC[C@@H](Nc1nc(Nc2cnc3c(c2)c(OC)nn3C)c(C(N)=O)cc1F)[C@H](C)N [Example 2-251, 6-(((2S,3R)-2-aminopentan-3-yl)amino)-5-fluoro-2-((3-methoxy-1-methyl-1H-pyrazolo[3,4-b]pyridin-5-yl)amino)nicotinamide] | 10 to 50 | ≥ 50 |  | 130 to 200 |
| CC[C@H](N)[C@@H](C)Nc1nc(Nc2cncc3c2cnn3CC)c(C(N)=O)cc1F [Example 2-325, 6-(((2R,3S)-3-aminopentan-2-yl)amino)-2-((1-ethyl-1H-pyrazolo[3,4-c]pyridin-4-yl)amino)-5-fluoronicotinamide] | < 10 |  | < 1000 | 130 to 200 |
| CCn1ncc2cc(Nc3nc(N[C@@H]4CCOC[C@@H]4N)c(F)cc3C(N)=O)ccc21 [Example 2-326, 6-(((3R,4R)-3-aminotetrahydro-2H-pyran-4-yl)amino)-2-((1-ethyl-1H-indazol-5-yl)amino)-5-fluoronicotinamide] | < 10 | ≥ 50 |  | < 65 |
| Cc1nn(CC(F)F)c2ccc(Nc3nc(N[C@@H]4CCOC[C@@H]4N)c(F)cc3C(N)=O)cc12 [Example 2-328, 6-(((3R,4R)-3-aminotetrahydro-2H-pyran-4-yl)amino)-2-((1-(2,2-difluoroethyl)-3-methyl-1H-indazol-5-yl)amino)-5-fluoronicotinamide] | < 10 | ≥ 50 |  | < 65 |
| COCCn1ncc2c(Nc3nc(N[C@@H]4CCOC[C@@H]4N)c(F)cc3C(N)=O)cccc21 [Example 2-331, 6-(((3R,4R)-3-aminotetrahydro-2H-pyran-4-yl)amino)-5-fluoro-2-((1-(2-methoxyethyl)-1H-indazol-4-yl)amino)nicotinamide] | < 10 | ≥ 50 | 1000 to 3000 |  |
| NC(=O)c1cc(F)c(N[C@@H]2CCOC[C@@H]2N)nc1Nc1cccc2c1cnn2CC(F)F [Example 2-332, 6-(((3R,4R)-3-aminotetrahydro-2H-pyran-4-yl)amino)-2-((1-(2,2-difluoroethyl)-1H-indazol-4-yl)amino)-5-fluoronicotinamide] | < 10 |  | < 1000 | 65 to 130 |
| COCCn1nc(OC(F)F)c2cc(Nc3nc(N[C@@H]4CCOC[C@@H]4N)c(F)cc3C(N)=O)ccc21 [Example 2-352, 6-(((3R,4R)-3-aminotetrahydro-2H-pyran-4-yl)amino)-2-((3-(difluoromethoxy)-1-(2-methoxyethyl)-1H-indazol-5-yl)amino)-5-fluoronicotinamide] | < 10 | ≥ 50 | < 1000 |  |
| CC[C@H](N)[C@H](Nc1nc(Nc2cnc(C)c(-n3nccn3)c2)c(C(N)=O)cc1F)C1CC1 [Example 2-358, 6-(((1R,2S)-2-amino-1-cyclopropylbutyl)amino)-5-fluoro-2-((6-methyl-5-(2H-1,2,3-triazol-2-yl)pyridin-3-yl)amino)nicotinamide] | 10 to 50 | ≥ 50 | 1000 to 3000 |  |
| COCCn1ncc2c(Nc3nc(N[C@@H]4CCOC[C@@H]4N)c(F)cc3C(N)=O)cc(F)cc21 [Example 2-375, 6-(((3R,4R)-3-aminotetrahydro-2H-pyran-4-yl)amino)-5-fluoro-2-((6-fluoro-1-(2-methoxyethyl)-1H-indazol-4-yl)amino)nicotinamide] | < 10 |  | 1000 to 3000 | 65 to 130 |
| CC[C@@H](Nc1nc(Nc2cc(F)cc3c2cnn3CCOC)c(C(N)=O)cc1F)[C@H](C)N [Example 2-376, 6-(((2S,3R)-2-aminopentan-3-yl)amino)-5-fluoro-2-((6-fluoro-1-(2-methoxyethyl)-1H-indazol-4-yl)amino)nicotinamide] | < 10 |  | < 1000 | 65 to 130 |
| CCn1ncc2c(Nc3nc(N[C@H](C4CCC4)[C@H](C)N)c(F)cc3C(N)=O)cncc21 [Example 2-406, 6-(((1R,2S)-2-amino-1-cyclobutylpropyl)amino)-2-((1-ethyl-1H-pyrazolo[3,4-c]pyridin-4-yl)amino)-5-fluoronicotinamide] | < 10 |  | 1000 to 3000 | 130 to 200 |
| Cc1ncc(Nc2nc(N[C@H](c3ccccc3F)[C@H](C)N)c(F)cc2C(N)=O)cc1-n1nccn1 [Example 2-409, 6-(((1R,2S)-2-amino-1-(2-fluorophenyl)propyl)amino)-5-fluoro-2-((6-methyl-5-(2H-1,2,3-triazol-2-yl)pyridin-3-yl)amino)nicotinamide] | < 10 |  | 1000 to 3000 | 130 to 200 |
| Cc1ncc(Nc2nc(N[C@H](c3cccs3)[C@H](C)N)c(F)cc2C(N)=O)cc1-n1nccn1 [Example 2-415, 6-(((1S,2S)-2-amino-1-(thiophen-2-yl)propyl)amino)-5-fluoro-2-((6-methyl-5-(2H-1,2,3-triazol-2-yl)pyridin-3-yl)amino)nicotinamide] | < 10 | ≥ 50 |  | 130 to 200 |
| COCCN(C)c1nn(C)c2ccc(Nc3nc(N[C@@H]4CCCC[C@@H]4N)c(F)cc3C(N)=O)cc12 [Example 2-456, 6-(((1R,2S)-2-aminocyclohexyl)amino)-5-fluoro-2-((3-((2-methoxyethyl)(methyl)amino)-1-methyl-1H-indazol-5-yl)amino)nicotinamide] | < 10 | ≥ 50 |  |  |
| Cc1cc(C)n(-c2cncc(Nc3nc(N[C@@H]4CCCC[C@@H]4N)c(F)cc3C(N)=O)c2)n1 [Example 2-473, 6-(((1R,2S)-2-aminocyclohexyl)amino)-2-((5-(3,5-dimethyl-1H-pyrazol-1-yl)pyridin-3-yl)amino)-5-fluoronicotinamide] | 10 to 50 | ≥ 50 |  |  |
| NC(=O)c1cc(F)c(N[C@@H]2CCCC[C@@H]2N)nc1Nc1cncc(-n2cc(Cl)cn2)c1 [Example 2-483, 6-(((1R,2S)-2-aminocyclohexyl)amino)-2-((5-(4-chloro-1H-pyrazol-1-yl)pyridin-3-yl)amino)-5-fluoronicotinamide] | < 10 | ≥ 50 |  |  |
